From the NIST ThermoML archive (doi:10.1021/acs.jced.5b00369)

Assay: relative permittivity at zero frequency (dimensionless); xn = mol fraction of the nth substance listed
Conditions: 101 kPa, Liquid

CC(C)[N+](=O)[O-] [2-nitropropane] + C1CCCCC1
298.15 K, two-terminal dielectric cell
Conditions	relative permittivity at zero frequency
x1 = 0.001188	2.0322
x1 = 0.003139	2.0568
x1 = 0.006442	2.09876
x1 = 0.009592	2.13855
x1 = 0.01286	2.18001
x1 = 0.01918	2.26067
x1 = 0.02225	2.29974
x1 = 0.0266	2.35434
x1 = 0.031	2.41041
x1 = 0.03475	2.45922
x1 = 0.04093	2.54037
x1 = 0.04703	2.62139
x1 = 0.05035	2.66577
x1 = 0.05259	2.69578
x1 = 0.05527	2.7322
x1 = 0.05838	2.77444
x1 = 0.06441	2.857
x1 = 0.07038	2.93937

CCC[N+](=O)[O-] [1-nitropropane] + ClC(Cl)(Cl)Cl
298.15 K, two-cell dielectric cell
Conditions	relative permittivity at zero frequency
x1 = 0.002869	2.27091
x1 = 0.005861	2.3147
x1 = 0.01167	2.39918
x1 = 0.01742	2.48214
x1 = 0.0231	2.56405
x1 = 0.0253	2.59588
x1 = 0.02987	2.66163
x1 = 0.03553	2.74365
x1 = 0.04122	2.82491
x1 = 0.04993	2.95383
x1 = 0.05263	2.99295
x1 = 0.05816	3.07483
x1 = 0.06363	3.15625

CC(C)[N+](=O)[O-] [2-nitropropane] + CC(C)C(C)C
298.15 K, two-terminal dielectric cell
Conditions	relative permittivity at zero frequency
x1 = 0.003786	1.92648
x1 = 0.007756	1.96704
x1 = 0.01545	2.04621
x1 = 0.02302	2.12477
x1 = 0.03047	2.20279
x1 = 0.03298	2.22897
x1 = 0.03446	2.24427
x1 = 0.03679	2.26913
x1 = 0.04419	2.34842
x1 = 0.0515	2.42769
x1 = 0.05867	2.50669
x1 = 0.06479	2.5748
x1 = 0.06604	2.58924
x1 = 0.06819	2.61329
x1 = 0.07183	2.65458
x1 = 0.07889	2.73569
x1 = 0.08584	2.81657
x1 = 0.09268	2.89729

CC[N+](=O)[O-] [nitroethane] + Cc1ccc(C)cc1
298.15 K, two-terminal dielectric cell
Conditions	relative permittivity at zero frequency
x1 = 0.001685	2.2782
x1 = 0.009202	2.35917
x1 = 0.01833	2.45822
x1 = 0.02729	2.55599
x1 = 0.03608	2.65295
x1 = 0.04032	2.69936
x1 = 0.05043	2.81296
x1 = 0.05899	2.91009
x1 = 0.0674	3.00647
x1 = 0.07566	3.10223

CCC[N+](=O)[O-] [1-nitropropane] + Cc1ccc(C)cc1
298.15 K, two-cell dielectric cell
Conditions	relative permittivity at zero frequency
x1 = 0.005128	2.31627
x1 = 0.007441	2.34224
x1 = 0.01482	2.4248
x1 = 0.0221	2.50652
x1 = 0.02927	2.58754
x1 = 0.03246	2.62349
x1 = 0.03388	2.63942
x1 = 0.03604	2.66416
x1 = 0.03819	2.68861
x1 = 0.04527	2.77022
x1 = 0.05226	2.85114
x1 = 0.05913	2.93159

ClC(Cl)(Cl)Cl [tetrachloromethane] + C[N+](=O)[O-]
two-terminal dielectric cell
Conditions	relative permittivity at zero frequency
298.15 K, x2 = 0.00098	2.24081
298.15 K, x2 = 0.001471	2.24714
298.15 K, x2 = 0.001979	2.25361
298.15 K, x2 = 0.002444	2.25959
298.15 K, x2 = 0.002927	2.26574
298.15 K, x2 = 0.003884	2.27791
298.15 K, x2 = 0.004245	2.28249
298.15 K, x2 = 0.00484	2.29002
298.15 K, x2 = 0.005797	2.30213
298.15 K, x2 = 0.006743	2.31404
298.15 K, x2 = 0.007679	2.32583
298.15 K, x2 = 0.008374	2.33457
298.15 K, x2 = 0.01041	2.35982
298.15 K, x2 = 0.01242	2.38483
298.15 K, x2 = 0.01439	2.40939
298.15 K, x2 = 0.01577	2.42642
298.15 K, x2 = 0.01737	2.44616
298.15 K, x2 = 0.01871	2.46233
298.15 K, x2 = 0.02204	2.50367
298.15 K, x2 = 0.02674	2.56122
298.15 K, x2 = 0.03418	2.65322
298.15 K, x2 = 0.04333	2.76524
298.15 K, x2 = 0.0523	2.87591
298.15 K, x2 = 0.0567	2.92988
318.15 K, x2 = 0.000162	2.23812
318.15 K, x2 = 0.000418	2.24125
318.15 K, x2 = 0.0008265	2.24641
318.15 K, x2 = 0.001238	2.25158
318.15 K, x2 = 0.001648	2.25667
318.15 K, x2 = 0.002055	2.26176
318.15 K, x2 = 0.00246	2.26679
318.15 K, x2 = 0.003263	2.2768
318.15 K, x2 = 0.003558	2.28051
318.15 K, x2 = 0.004468	2.29186
318.15 K, x2 = 0.005663	2.30678
318.15 K, x2 = 0.007033	2.3239
318.15 K, x2 = 0.007748	2.33263
318.15 K, x2 = 0.009707	2.35737
318.15 K, x2 = 0.0113	2.37756
318.15 K, x2 = 0.01572	2.4327
318.15 K, x2 = 0.02009	2.48822
318.15 K, x2 = 0.02486	2.54795
318.15 K, x2 = 0.02873	2.59732
318.15 K, x2 = 0.03299	2.65111
318.15 K, x2 = 0.0414	2.75865
318.15 K, x2 = 0.04472	2.80151
318.15 K, x2 = 0.054	2.91886
318.15 K, x2 = 0.06623	3.07885
318.15 K, x2 = 0.07426	3.18574
318.15 K, x2 = 0.08027	3.26614

CC[N+](=O)[O-] [nitroethane] + ClC(Cl)(Cl)Cl
298.15 K, two-terminal dielectric cell
Conditions	relative permittivity at zero frequency
x1 = 0.003529	2.27902
x1 = 0.00724	2.3313
x1 = 0.01443	2.4321
x1 = 0.02153	2.53048
x1 = 0.02851	2.62767
x1 = 0.0311	2.6639
x1 = 0.03397	2.7038
x1 = 0.04093	2.80121
x1 = 0.04779	2.89785
x1 = 0.05456	2.9938

CC(C)[N+](=O)[O-] [2-nitropropane] + ClC(Cl)(Cl)Cl
298.15 K, two-terminal dielectric cell
Conditions	relative permittivity at zero frequency
x1 = 0.001006	2.24531
x1 = 0.002745	2.27181
x1 = 0.00569	2.31696
x1 = 0.01141	2.40482
x1 = 0.01707	2.49201
x1 = 0.02266	2.57869
x1 = 0.02488	2.61322
x1 = 0.02599	2.62967
x1 = 0.02803	2.6614
x1 = 0.03078	2.70432
x1 = 0.03634	2.79196
x1 = 0.04183	2.87937
x1 = 0.04726	2.9666

CC(C)[N+](=O)[O-] [2-nitropropane] + Cc1ccc(C)cc1
298.15 K, two-terminal dielectric cell
Conditions	relative permittivity at zero frequency
x1 = 0.005471	2.32313
x1 = 0.007307	2.34454
x1 = 0.01457	2.42922
x1 = 0.02174	2.51328
x1 = 0.02879	2.59677
x1 = 0.03194	2.63439
x1 = 0.03336	2.65058
x1 = 0.03555	2.67711
x1 = 0.04256	2.76165
x1 = 0.04948	2.84581
x1 = 0.05628	2.92956
x1 = 0.06235	3.00461

CCC[N+](=O)[O-] [1-nitropropane] + C1CCCCC1
298.15 K, two-cell dielectric cell
Conditions	relative permittivity at zero frequency
x1 = 0.003184	2.05488
x1 = 0.006527	2.09539
x1 = 0.01302	2.1734
x1 = 0.01942	2.24959
x1 = 0.02574	2.3244
x1 = 0.02693	2.33815
x1 = 0.02818	2.3525
x1 = 0.03015	2.37603
x1 = 0.03648	2.4508
x1 = 0.04272	2.52479
x1 = 0.04887	2.59808
x1 = 0.05327	2.64994
x1 = 0.05626	2.68544
x1 = 0.0594	2.72327
x1 = 0.06549	2.79734
x1 = 0.07152	2.87045
x1 = 0.07893	2.96124

CC[N+](=O)[O-] [nitroethane] + C1CCCCC1
298.15 K, two-terminal dielectric cell
Conditions	relative permittivity at zero frequency
x1 = 0.003987	2.0631
x1 = 0.008153	2.11122
x1 = 0.01622	2.20858
x1 = 0.02416	2.2932
x1 = 0.03312	2.3893
x1 = 0.0371	2.43784
x1 = 0.04487	2.5254
x1 = 0.05252	2.6119
x1 = 0.06004	2.69759
x1 = 0.06369	2.73934

C[N+](=O)[O-] [nitromethane] + c1ccccc1
two-terminal dielectric cell
Conditions	relative permittivity at zero frequency
298.15 K, x1 = 0.000817	2.28834
298.15 K, x1 = 0.001228	2.294
298.15 K, x1 = 0.001638	2.29956
298.15 K, x1 = 0.002045	2.30518
298.15 K, x1 = 0.00245	2.31071
298.15 K, x1 = 0.003332	2.32281
298.15 K, x1 = 0.003559	2.32593
298.15 K, x1 = 0.004459	2.33824
298.15 K, x1 = 0.005656	2.35464
298.15 K, x1 = 0.006833	2.37085
298.15 K, x1 = 0.007322	2.37753
298.15 K, x1 = 0.007982	2.38639
298.15 K, x1 = 0.01242	2.44757
298.15 K, x1 = 0.01595	2.49623
298.15 K, x1 = 0.02031	2.55663
298.15 K, x1 = 0.02465	2.61628
298.15 K, x1 = 0.0332	2.7354
298.15 K, x1 = 0.04458	2.89495
298.15 K, x1 = 0.05494	3.03914
298.15 K, x1 = 0.06641	3.20367
298.15 K, x1 = 0.08012	3.40373
318.15 K, x1 = 0.000437	2.19342
318.15 K, x1 = 0.0008868	2.19856
318.15 K, x1 = 0.001333	2.20368
318.15 K, x1 = 0.001778	2.20876
318.15 K, x1 = 0.002219	2.21383
318.15 K, x1 = 0.002658	2.2188
318.15 K, x1 = 0.003857	2.23245
318.15 K, x1 = 0.004835	2.24352
318.15 K, x1 = 0.006131	2.25821
318.15 K, x1 = 0.007631	2.27516
318.15 K, x1 = 0.009325	2.29411
318.15 K, x1 = 0.01132	2.31664
318.15 K, x1 = 0.01305	2.33622
318.15 K, x1 = 0.0149	2.35704
318.15 K, x1 = 0.01628	2.37368
318.15 K, x1 = 0.02047	2.42114
318.15 K, x1 = 0.02519	2.47484
318.15 K, x1 = 0.03005	2.53001
318.15 K, x1 = 0.0345	2.58032
318.15 K, x1 = 0.04273	2.67386
318.15 K, x1 = 0.05416	2.80502
318.15 K, x1 = 0.06683	2.9527
318.15 K, x1 = 0.07816	3.08644
318.15 K, x1 = 0.09171	3.24999
